Source: patent US6368788B1 (priority 1987, dated 2002)
Marks after values point to notes of the source that are not given here.

Assays:
M. bovis = assay type: in vivo, mice; details: Group 8; INH 5 mg/kg sc daily
YAC-1 target cells = assay: NK cytotoxic activity of splenocytes on YAC-1 target cells; assay type: in vivo, C3H/HeJ mice; details: for Cytotoxicity Change (%): vs saline
Rauscher MuLV = assay: Anti-viral response to Rauscher MuLV; assay type: in vivo, mice; details: days −2, −1, 0, +1, and +2; for Viremia: ± SEM
Description: Innate mechanisms of anti-viral immunity are important to survival of the host. The Rauscher murine leukemia virus (MuLV) is an example of a highly virulent animal retrovirus infection, first isolated and characterized by Dr. Rauscher from BALB/c mouse tissues in 1962. […] The virus employed in present GLP/blinded study was a murine leukemia complex known to induce progressive erythroleukemia in mice (i.e., Rauscher MuLV and replication-defective Rauscher spleen focus-forming virus). Disease manifested within about 6 days with death by about 50 days. Measurements of splenomegaly, blood reverse transcriptase, virus plaque assays (i.e., XC-plaque assay for viremia using SC-1 host cells) and serum anti-viral antibody titers were used to assess infection. Spleens achieved about 2.0 grams in weight within 21 days of infection, as compared with a normal spleen weights in an uninfected animals of about 0.1 gram.
Mice were inoculated with Rauscher MuLV complex (0.1 ml/7.8×10^4 PFU/mL) on day 0 and sacrificed on day 21. Test groups were comprised of 10 mice and control groups 6 mice. Control articles included saline and AZT (in drinking water at about 1.25 mg/mouse/day≈63 mg/kg/day/mouse). […] A non-infected group of mice was also sacrificed on day 21 to provide normal control values.
In EXAMPLE 38, SC-1 cells were originally derived from murine embryos, and XC cells (a rat tumor cell line induced by Rous Sarcoma Virus) were obtained from the ATCC in Rockville, Md.

[1] = Survival in LPS-induced endotoxic shock; assay type: in vivo, CBA mice
Description: The mortality results were evaluated using the Litchfield-Wilcoxon's probit analysis method and a computer program written to conduct probit analyses.

## NNC(=O)c1ccncc1 [Isoniazid, reference compound]
M. bovis
  Survival Mean: 57 ± 2

## Glu-Trp
YAC-1 target cells; dose 1 (μg/kg ip daily 7 days)
  % Cytotoxicity (mean +/− S.D.): 10.7 ± 14%
YAC-1 target cells; dose 1
  Cytotoxicity Change (%): 25 ↑ %
YAC-1 target cells; dose 10 (μg/kg ip daily 7 days)
  % Cytotoxicity (mean +/− S.D.): 14.3 ± 1.7%
YAC-1 target cells; dose 10
  Cytotoxicity Change (%): 67 ↑ %
YAC-1 target cells; dose 1000 (μg/kg ip daily 7 days)
  % Cytotoxicity (mean +/− S.D.): 14.9 ± 2.9%
YAC-1 target cells; dose 1000
  Cytotoxicity Change (%): 75* ↑ %
Rauscher MuLV; 0.002 mg/kg
  Reduction Splenomegaly (%): −9%
  Spleen Weight (mean ± SD): 0.49 ± 0.31
Rauscher MuLV; 0.005 mg/kg
  Reduction Splenomegaly (%): −3%
  Spleen Weight (mean ± SD): 0.47 ± 0.29
  Viremia: 3.25 ± 0.27 log10PFU/ml
Rauscher MuLV; 0.02 mg/kg
  Reduction Splenomegaly (%): 12%
  Spleen Weight (mean ± SD): 0.42 ± 0.32
Rauscher MuLV; 0.05 mg/kg
  Reduction Splenomegaly (%): 30%
  Spleen Weight (mean ± SD): 0.36 ± 0.11
  Viremia: 2.99 ± 0.28 log10PFU/ml
Rauscher MuLV; 0.17 mg/kg
  Reduction Splenomegaly (%): 12%
  Spleen Weight (mean ± SD): 0.42 ± 0.26
Rauscher MuLV; 0.5 mg/kg
  Reduction Splenomegaly (%): −12%
  Spleen Weight (mean ± SD): 0.48 ± 0.3
  Viremia: 3.31 ± 0.39 log10PFU/ml
Rauscher MuLV; 1.75 mg/kg
  Reduction Splenomegaly (%): 3%
  Spleen Weight (mean ± SD): 0.45 ± 0.39
Rauscher MuLV; 5 mg/kg
  Reduction Splenomegaly (%): 6%
  Spleen Weight (mean ± SD): 0.44 ± 0.15
  Viremia: 3.43 ± 0.368 log10PFU/ml
[1]; 24 hrs after LD99 LPS ip, 10 μg/kg ip daily x3 prophylactic
  Survivors (%): 36%
[1]; 24 hrs after LD99 LPS ip, 10 μg/kg ip daily x3 prophylactic, 11 animals
  Survivors: 4
[1]; 24 hrs after LD99 LPS ip, 100 μg/kg ip daily x3 prophylactic
  Survivors (%): 80* %
[1]; 24 hrs after LD99 LPS ip, 100 μg/kg ip daily x3 prophylactic, 10 animals
  Survivors: 8
[1]; 30 hrs after LD99 LPS ip, 10 μg/kg ip daily x3 prophylactic
  Survivors (%): 9%
[1]; 30 hrs after LD99 LPS ip, 10 μg/kg ip daily x3 prophylactic, 11 animals
  Survivors: 1
[1]; 30 hrs after LD99 LPS ip, 100 μg/kg ip daily x3 prophylactic
  Survivors (%): 40* %
[1]; 30 hrs after LD99 LPS ip, 100 μg/kg ip daily x3 prophylactic, 10 animals
  Survivors: 4
